The assay deals with T1, Human GO (Homo sapiens, UniProt Q9UJM8).
T1 construct: purchased Novus Biologicals NBP1-72412
T1 sequence (Q9UJM8 1-370): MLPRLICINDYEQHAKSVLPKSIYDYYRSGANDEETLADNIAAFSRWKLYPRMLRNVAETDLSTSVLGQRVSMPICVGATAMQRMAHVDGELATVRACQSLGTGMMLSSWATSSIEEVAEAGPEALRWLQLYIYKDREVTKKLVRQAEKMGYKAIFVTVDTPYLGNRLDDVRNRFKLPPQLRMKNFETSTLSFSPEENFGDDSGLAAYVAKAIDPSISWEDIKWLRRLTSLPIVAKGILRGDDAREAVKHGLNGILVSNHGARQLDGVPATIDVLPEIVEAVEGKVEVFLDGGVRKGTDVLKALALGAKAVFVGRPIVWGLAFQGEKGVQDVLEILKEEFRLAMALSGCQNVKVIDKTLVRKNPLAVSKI
The assay is described as follows: GO enzymatic assay (coupled fluorescence/HRP assay, glycolate substrate). Type of assay: biochemical. Particulars: read-out: Range (range of IC50 values calculated from the enzymatic assays). The essentials:
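Human GO incubated with glycolate substrate in 50 mM potassium phosphate, pH 7, with varying inhibitor concentrations. Activity read by coupled HRP fluorescence. IC50 taken from variable-slope sigmoidal dose-response fits of percent inhibition relative to DMSO control.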

Results on 33 compounds are retold here after patent US11384055B2 (BIOMARIN PHARMACEUTICAL INC., priority 2017, dated 2022).

SMILES strings stand for the structures. Where two headings read alike, the source gives them in different places.

One may read the IC50 as the point on the concentration scale where inhibition reaches its midpoint. Take `O=C(O)c1[nH]nnc1OC1CCN(c2cc(Cl)cc(Cl)c2)CC1` [Compound 285, 4-((1-(3,5-dichlorophenyl)piperidin-4-yl)oxy)-1H-1,2,3-triazole-5-carboxylic acid 2,2,2-trifluoroacetate]: the IC50 (Table 2) was less than 100 nM.

In the case of `O=C(O)c1[nH]nnc1OC1CCN(c2ccc(Cl)c(Cl)c2)CC1` [Compound 286, 4-((1-(3,4-dichlorophenyl)piperidin-4-yl)oxy)-1H-1,2,3-triazole-5-carboxylic acid 2,2,2-trifluoroacetate], the half-inhibitory concentration (IC50) (Table 2) is less than 100 nM.

Turning to `O=C(O)c1[nH]nnc1OC1CCN(c2ccc(C(F)(F)F)cc2)CC1` [Compound 287, 4-((1-(4-(trifluoromethyl)phenyl)piperidin-4-yl)oxy)-1H-1,2,3-triazole-5-carboxylic acid 2,2,2-trifluoroacetate], the half-maximal inhibitory concentration (IC50) (Table 2) is less than 100 nM.

Regarding `O=C(O)c1[nH]nnc1Oc1cc(OCC2CC2)cc(C(F)(F)F)c1` [Compound 288, 4-(3-(cyclopropylmethoxy)-5-(trifluoromethyl)phenoxy)-1H-1,2,3-triazole-5-carboxylic acid], the half-maximal inhibitory concentration (IC50) (Table 2) was 100 to 1000 nM.

In the case of `O=C(O)c1[nH]nnc1Oc1cc(Cl)cc(OCC2CC2)c1` [Compound 289, 4-(3-chloro-5-(cyclopropylmethoxy)phenoxy)-1H-1,2,3-triazole-5-carboxylic acid 2,2,2-trifluoroacetate], the IC50 (Table 2) was less than 100 nM.

As to `O=C(O)c1[nH]nnc1Oc1cccc(OCC2CCCC2)c1` [Compound 290, 4-(3-(cyclopentylmethoxy)phenoxy)-1H-1,2,3-triazole-5-carboxylic acid 2,2,2-trifluoroacetate], the IC50 (Table 2) was less than 100 nM.

On to `O=C(O)c1[nH]nnc1OC1CCN(c2cc(Cl)ccc2Cl)CC1` [Compound 291, 4-((1-(2,5-dichlorophenyl)piperidin-4-yl)oxy)-1H-1,2,3-triazole-5-carboxylic acid 2,2,2-trifluoroacetate], for which the half-inhibitory concentration (IC50) (Table 2) was less than 100 nM.

`O=C(O)c1[nH]nnc1Oc1ccc(Cl)c(OCC2CC2)c1` [Compound 292, 4-(4-chloro-3-(cyclopropylmethoxy)phenoxy)-1H-1,2,3-triazole-5-carboxylic acid]: the half-maximal inhibitory concentration (IC50) (Table 2) was less than 100 nM.

Take `O=C(O)c1[nH]nnc1Oc1cc(OCC2CC2)ccc1Cl` [Compound 293, 4-(2-chloro-5-(cyclopropylmethoxy)phenoxy)-1H-1,2,3-triazole-5-carboxylic acid]: the IC50 (Table 2) is less than 100 nM.

Turning to `O=C(O)c1[nH]nnc1OC(Cc1ccc(Cl)cc1)Cc1ccc(Cl)cc1` [Compound 294, 4-((1,3-bis(4-chlorophenyl)propan-2-yl)oxy)-1H-1,2,3-triazole-5-carboxylic acid], under “Table 3”, the concentration for half-maximal inhibition (IC50) was less than 100 nM.

Turning to `O=C(O)c1[nH]nnc1Oc1ccc(C(F)(F)F)c(OCC2CC2)c1` [Compound 295, 4-(3-(cyclopropylmethoxy)-4-(trifluoromethyl)phenoxy)-1H-1,2,3-triazole-5-carboxylic acid], where the note is “Table 2”, the half-maximal inhibitory concentration (IC50) was less than 100 nM.

Regarding `O=C(O)c1[nH]nnc1OC(CCc1ccccc1)c1ccccc1` (stereo not drawn) [Compound 296, 4-(1,3-diphenylpropoxy)-1H-1,2,3-triazole-5-carboxylic acid], the IC50 (Table 3) was greater than 10000 nM.

As to `O=C(O)c1[nH]nnc1Oc1ccc(-c2ccc(N3CCC(F)(F)CC3)cc2)cc1` [Compound 297, 4-((4′-(4,4-difluoropiperidin-1-yl)-[1,1′-biphenyl]-4-yl)oxy)-1H-1,2,3-triazole-5-carboxylic acid 2,2,2-trifluoroacetate], where the note is “Table 2”, the IC50 is less than 100 nM.

Turning to `O=C(O)c1[nH]nnc1OCC1CCC(c2ccc(OC(F)(F)F)cc2)CC1` (stereo not drawn) [Compound 298, 4-((4-(4-(trifluoromethoxy)phenyl)cyclohexyl)methoxy)-1H-1,2,3-triazole-5-carboxylic acid], the IC50 (Table 2) was less than 100 nM.

Consider `O=C(O)c1[nH]nnc1COc1ccc(-c2cc(Cl)cc(Cl)c2)cc1` [Compound 299, 4-(((3′,5′-dichloro-[1,1′-biphenyl]-4-yl)oxy)methyl)-1H-1,2,3-triazole-5-carboxylic acid], for which the 50% inhibitory concentration (IC50) (Table 2) was less than 100 nM.

Take `O=C(O)c1[nH]nnc1COc1ccc(-c2ccc(OC(F)(F)F)c(Cl)c2)cc1` [Compound 300, 4-(((3′-chloro-4′-(trifluoromethoxy)-[1,1′-biphenyl]-4-yl)oxy)methyl)-1H-1,2,3-triazole-5-carboxylic acid]: the IC50 (Table 2) is less than 100 nM.

Consider `O=C(O)c1[nH]nnc1Oc1ccc(N2CCC(F)(F)CC2)cc1` [Compound 301, 4-(4-(4,4-difluoropiperidin-1-yl)phenoxy)-1H-1,2,3-triazole-5-carboxylic acid 2,2,2-trifluoroacetate], for which the IC50 (Table 2) was 100 to 1000 nM.

For `O=C(OCOC(=O)C1CCCCC1)c1[nH]nnc1O[C@H]1CC[C@H](c2ccc(OC(F)(F)F)cc2)CC1` [Compound 303, ((cyclohexanecarbonyl)oxy)methyl 4-(((trans)-4-(4-(trifluoromethoxy)phenyl)cyclohexyl)oxy)-1H-1,2,3-triazole-5-carboxylate], the IC50 (Table 2) is greater than 10000 nM.

`O=C(O)c1[nH]nnc1O[C@H]1CC[C@@H](c2cc(Cl)cc(Cl)c2)CC1` [Compound 304, 4-(((1s,4s)-4-(3,5-dichlorophenyl)cyclohexyl)oxy)-1H-1,2,3-triazole-5-carboxylic acid]: under “Table 2”, the IC50 is less than 100 nM.

In the case of `O=C(OCOC(=O)c1[nH]nnc1O[C@H]1CC[C@H](c2ccc(OC(F)(F)F)cc2)CC1)c1ccccc1` [Compound 305, (benzoyloxy)methyl 4-(((trans)-4-(4-(trifluoromethoxy)phenyl)cyclohexyl)oxy)-1H-1,2,3-triazole-5-carboxylate], for the setting “Table 2”, the IC50 is greater than 10000 nM.

On to `O=C(O)c1[nH]nnc1Oc1ccc(C2CCC(N3CCCCC3)CC2)cc1` (stereo not drawn) [Compound 306, 4-(4-(4-(piperidin-1-yl)cyclohexyl)phenoxy)-1H-1,2,3-triazole-5-carboxylic acid 2,2,2-trifluoroacetate], for which, under “Table 2”, the IC50 was 100 to 1000 nM.

Regarding `CC(C)C(=O)OCOC(=O)c1[nH]nnc1O[C@H]1CC[C@H](c2ccc(OC(F)(F)F)cc2)CC1` [Compound 307, (isobutyryloxy)methyl 4-(((trans)-4-(4-(trifluoromethoxy)phenyl)cyclohexyl)oxy)-1H-1,2,3-triazole-5-carboxylate], for the setting “Table 2”, the IC50 was 1000 to 10000 nM.

`O=C(O)c1[nH]nnc1O[C@H]1CC[C@@H](c2ccc(Cl)c(Cl)c2)CC1` [Compound 308-1, 4-(((cis)-4-(3,4-dichlorophenyl)cyclohexyl)oxy)-1H-1,2,3-triazole-5-carboxylic acid]: the IC50 (Table 2) was less than 100 nM.

As to `O=C(O)c1[nH]nnc1O[C@H]1CC[C@H](c2ccc(Cl)c(Cl)c2)CC1` [Compound 308-2, 4-(((trans)-4-(3,4-dichlorophenyl)cyclohexyl)oxy)-1H-1,2,3-triazole-5-carboxylic acid], the IC50 (Table 2) was less than 100 nM.

`O=C(O)c1[nH]nnc1Oc1ccc(Cl)c(OCC2CCCCC2)c1` [Compound 309, 4-(4-chloro-3-(cyclohexylmethoxy)phenoxy)-1H-1,2,3-triazole-5-carboxylic acid]: where the note is “Table 2”, the concentration for half-maximal inhibition (IC50) was less than 100 nM.

`O=C(O)c1[nH]nnc1O[C@H]1CC[C@@H](c2ccc(C(F)(F)F)cc2)CC1` [Compound 310, 4-(((cis)-4-(4-(trifluoromethyl)phenyl)cyclohexyl)oxy)-1H-1,2,3-triazole-5-carboxylic acid]: the IC50 (Table 2) is less than 100 nM.

Regarding `O=C(O)c1[nH]nnc1SC1CCC2(CCCC2)CC1` [Compound 311, 4-(spiro[4.5]decan-8-ylthio)-1H-1,2,3-triazole-5-carboxylic acid 2,2,2-trifluoroacetate], the IC50 (Table 2) is less than 100 nM.

`O=C(O)c1[nH]nnc1CSc1ccc(-c2ccc(OC(F)(F)F)cc2)cc1` [Compound 312, 4-(((4′-(trifluoromethoxy)-[1,1′-biphenyl]-4-yl)thio)methyl)-1H-1,2,3-triazole-5-carboxylic acid 2,2,2-trifluoroacetate]: the IC50 (Table 2) was less than 100 nM.

Take `CCC(=O)OCOC(=O)c1[nH]nnc1Sc1ccc(-c2ccc(N3CCCCC3)cc2)cc1` [Compound 313, (propionyloxy)methyl 4-((4′-(piperidin-1-yl)-[1,1′-biphenyl]-4-yl)thio)-1H-1,2,3-triazole-5-carboxylate 2,2,2-trifluoroacetate]: the IC50 (Table 2) was 1000 to 10000 nM.

`O=C(O)c1[nH]nnc1SC1CCC(c2ccc(OC(F)(F)F)cc2)C1` (stereo not drawn) [Compound 314, 4-((3-(4-(trifluoromethoxy)phenyl)cyclopentyl)thio)-1H-1,2,3-triazole-5-carboxylic acid]: under “Table 2”, the half-maximal inhibitory concentration (IC50) is less than 100 nM.

As for `O=C(O)c1[nH]nnc1SC1CCC2(CCCCC2)CC1` [Compound 315, 4-(spiro[5.5]undecan-3-ylthio)-1H-1,2,3-triazole-5-carboxylic acid 2,2,2-trifluoroacetate], the IC50 (Table 2) is less than 100 nM.

Consider `O=C(O)c1[nH]nnc1SCc1ccc(N2CCCCC2)c2ccccc12` [Compound 316, 4-(((4-(piperidin-1-yl)naphthalen-1-yl)methyl)thio)-1H-1,2,3-triazole-5-carboxylic acid 2,2,2-trifluoroacetate], for which the IC50 (Table 2) was less than 100 nM.

As for `O=C(OCOC(=O)C1CCCCC1)c1[nH]nnc1Sc1ccc(-c2ccc(N3CCCCC3)cc2)cc1` [Compound 317, ((cyclohexanecarbonyl)oxy)methyl 4-((4′-(piperidin-1-yl)-[1,1′-biphenyl]-4-yl)thio)-1H-1,2,3-triazole-5-carboxylate 2,2,2-trifluoroacetate], where the note is “Table 2”, the IC50 was greater than 10000 nM.
